Data taken from ChEMBL document CHEMBL1136439, “Synthesis and bioactivities of nitronyl nitroxide and RGD containing pseudopeptides” (2003).
Where a SMILES comes first, the peptide text is derived from it. The star is where a group is joined. X1 = CC1(C)N(O)C(c2ccc(OCC(=O)*)cc2)=[N+]([O-])C1(C)C

Organism: Oryctolagus cuniculus
Test: Maximum rate of ADP induced platelet aggregation was determined in rabbit blood at a dose of 10-6 mol/L (in vitro)
Format: functional

Compared with `CC1(C)N(O)C(c2ccc(OCC(=O)N[C@@H](CCCN=C(N)N)C(=O)NCC(=O)N[C@@H](CC(=O)O)C(=O)N[C@@H](Cc3ccccc3)C(=O)O)cc2)=[N+]([O-])C1(C)C` (X1-RGDF-OH), `N=C(N)NCCC[C@H](N)C(=O)NCC(=O)N[C@@H](CC(=O)O)C(=O)N[C@@H](Cc1ccccc1)C(=O)O` (H-RGDF-OH) is higher in Am: 20.66% for the first, 24.15% for the second.

First: N=C(N)NCCC[C@H](N)C(=O)NCC(=O)N[C@@H](CC(=O)O)C(=O)N[C@@H](CO)C(=O)O
Second: CC1(C)N(O)C(c2ccc(OCC(=O)O)cc2)=[N+]([O-])C1(C)C
The Am of the first is lower: 40.14% for the first, 51.96% for the second.

Organism: Rattus norvegicus
Test: Compound tested for inhibition of Ach-induced vasorelaxation was determined in rat aortic strips
Format: functional, Aorta
Set-up: concentration or dose not given beside the values

Going from `CC1(C)N(O)C(c2ccc(OCC(=O)N[C@@H](CCCN=C(N)N)C(=O)NCC(=O)N[C@@H](CC(=O)O)C(=O)N[C@@H](Cc3ccccc3)C(=O)O)cc2)=[N+]([O-])C1(C)C` (X1-RGDF-OH) to `N=C(N)NCCC[C@H](N)C(=O)NCC(=O)N[C@@H](CC(=O)O)C(=O)N[C@@H](Cc1ccccc1)C(=O)O` (H-RGDF-OH), the Inhibition falls from 88.9% to 2.6%.

Going from `N=C(N)NCCC[C@H](N)C(=O)NCC(=O)N[C@@H](CC(=O)O)C(=O)N[C@@H](CO)C(=O)O` to `CC1(C)N(O)C(c2ccc(OCC(=O)O)cc2)=[N+]([O-])C1(C)C`, the Inhibition rises from 3.2% to 99.2%.

Organism: Oryctolagus cuniculus
Test: Maximum rate of PAF induced platelet aggregation was determined in rabbit blood at a dose of 10-7 mol/L (in vitro)
Format: functional

Compared with `CC1(C)N(O)C(c2ccc(OCC(=O)N[C@@H](CCCN=C(N)N)C(=O)NCC(=O)N[C@@H](CC(=O)O)C(=O)N[C@@H](Cc3ccccc3)C(=O)O)cc2)=[N+]([O-])C1(C)C` (X1-RGDF-OH), `N=C(N)NCCC[C@H](N)C(=O)NCC(=O)N[C@@H](CC(=O)O)C(=O)N[C@@H](Cc1ccccc1)C(=O)O` (H-RGDF-OH) is higher in Am: 50.02% for the first, 51.88% for the second.

Compared with `N=C(N)NCCC[C@H](N)C(=O)NCC(=O)N[C@@H](CC(=O)O)C(=O)N[C@@H](CO)C(=O)O`, `CC1(C)N(O)C(c2ccc(OCC(=O)O)cc2)=[N+]([O-])C1(C)C` is higher in Am: 54.21% for the first, 54.25% for the second.

Organism: Oryctolagus cuniculus
Test: Maximum rate of PAF induced platelet aggregation was determined in rabbit blood at a dose of 10-5 mol/L (in vitro)
Format: functional

Going from `CC1(C)N(O)C(c2ccc(OCC(=O)N[C@@H](CCCN=C(N)N)C(=O)NCC(=O)N[C@@H](CC(=O)O)C(=O)N[C@@H](Cc3ccccc3)C(=O)O)cc2)=[N+]([O-])C1(C)C` (X1-RGDF-OH) to `N=C(N)NCCC[C@H](N)C(=O)NCC(=O)N[C@@H](CC(=O)O)C(=O)N[C@@H](Cc1ccccc1)C(=O)O` (H-RGDF-OH), the Am rises from 9.98% to 10.22%.

Going from `N=C(N)NCCC[C@H](N)C(=O)NCC(=O)N[C@@H](CC(=O)O)C(=O)N[C@@H](CO)C(=O)O` to `CC1(C)N(O)C(c2ccc(OCC(=O)O)cc2)=[N+]([O-])C1(C)C`, the Am rises from 22.66% to 52.92%.

Organism: Oryctolagus cuniculus
Test: Maximum rate of PAF induced platelet aggregation was determined in rabbit blood at a dose of 10-6 mol/L (in vitro)
Format: functional

First: CC1(C)N(O)C(c2ccc(OCC(=O)N[C@@H](CCCN=C(N)N)C(=O)NCC(=O)N[C@@H](CC(=O)O)C(=O)N[C@@H](Cc3ccccc3)C(=O)O)cc2)=[N+]([O-])C1(C)C (X1-RGDF-OH)
Second: N=C(N)NCCC[C@H](N)C(=O)NCC(=O)N[C@@H](CC(=O)O)C(=O)N[C@@H](Cc1ccccc1)C(=O)O (H-RGDF-OH)
The Am of the first is lower: 24.26% for the first, 25.18% for the second.

Compared with `N=C(N)NCCC[C@H](N)C(=O)NCC(=O)N[C@@H](CC(=O)O)C(=O)N[C@@H](CO)C(=O)O`, `CC1(C)N(O)C(c2ccc(OCC(=O)O)cc2)=[N+]([O-])C1(C)C` is higher in Am: 37.1% for the first, 52.98% for the second.

Organism: Oryctolagus cuniculus
Test: Maximum rate of ADP induced platelet aggregation was determined in rabbit blood at a dose of 10-7 mol/L (in vitro)
Format: functional

Compared with `CC1(C)N(O)C(c2ccc(OCC(=O)N[C@@H](CCCN=C(N)N)C(=O)NCC(=O)N[C@@H](CC(=O)O)C(=O)N[C@@H](Cc3ccccc3)C(=O)O)cc2)=[N+]([O-])C1(C)C` (X1-RGDF-OH), `N=C(N)NCCC[C@H](N)C(=O)NCC(=O)N[C@@H](CC(=O)O)C(=O)N[C@@H](Cc1ccccc1)C(=O)O` (H-RGDF-OH) is lower in Am: 35.25% for the first, 33.76% for the second.

Compared with `N=C(N)NCCC[C@H](N)C(=O)NCC(=O)N[C@@H](CC(=O)O)C(=O)N[C@@H](CO)C(=O)O`, `CC1(C)N(O)C(c2ccc(OCC(=O)O)cc2)=[N+]([O-])C1(C)C` is higher in Am: 53.55% for the first, 54.68% for the second.

Tested on: Rattus norvegicus
Test: Effect on the dry thrombus weight in male wistar rat was determined(in vivo)
Format: functional

Compared with `CC1(C)N(O)C(c2ccc(OCC(=O)N[C@@H](CCCN=C(N)N)C(=O)NCC(=O)N[C@@H](CC(=O)O)C(=O)N[C@@H](Cc3ccccc3)C(=O)O)cc2)=[N+]([O-])C1(C)C` (X1-RGDF-OH), `N=C(N)NCCC[C@H](N)C(=O)NCC(=O)N[C@@H](CC(=O)O)C(=O)N[C@@H](Cc1ccccc1)C(=O)O` (H-RGDF-OH) is higher in Activity: 3.16 for the first, 3.94 for the second.

Compared with `N=C(N)NCCC[C@H](N)C(=O)NCC(=O)N[C@@H](CC(=O)O)C(=O)N[C@@H](CO)C(=O)O`, `CC1(C)N(O)C(c2ccc(OCC(=O)O)cc2)=[N+]([O-])C1(C)C` is lower in Activity: 6.68 for the first, 6.17 for the second.

Organism: Oryctolagus cuniculus
Test: Maximum rate of ADP induced platelet aggregation was determined in rabbit blood at a dose of 10-5 mol/L (in vitro)
Format: functional

Compared with `CC1(C)N(O)C(c2ccc(OCC(=O)N[C@@H](CCCN=C(N)N)C(=O)NCC(=O)N[C@@H](CC(=O)O)C(=O)N[C@@H](Cc3ccccc3)C(=O)O)cc2)=[N+]([O-])C1(C)C` (X1-RGDF-OH), `N=C(N)NCCC[C@H](N)C(=O)NCC(=O)N[C@@H](CC(=O)O)C(=O)N[C@@H](Cc1ccccc1)C(=O)O` (H-RGDF-OH) is lower in Am: 10.21% for the first, 10.13% for the second.

Compared with `N=C(N)NCCC[C@H](N)C(=O)NCC(=O)N[C@@H](CC(=O)O)C(=O)N[C@@H](CO)C(=O)O`, `CC1(C)N(O)C(c2ccc(OCC(=O)O)cc2)=[N+]([O-])C1(C)C` is higher in Am: 17.02% for the first, 51.6% for the second.

Tested on: Rattus norvegicus
Test: Effect on the wet thrombus weight in male wistar rat was determined(in vivo)
Format: functional
Set-up: unit not given beside the values

Compared with `CC1(C)N(O)C(c2ccc(OCC(=O)N[C@@H](CCCN=C(N)N)C(=O)NCC(=O)N[C@@H](CC(=O)O)C(=O)N[C@@H](Cc3ccccc3)C(=O)O)cc2)=[N+]([O-])C1(C)C` (X1-RGDF-OH), `N=C(N)NCCC[C@H](N)C(=O)NCC(=O)N[C@@H](CC(=O)O)C(=O)N[C@@H](Cc1ccccc1)C(=O)O` (H-RGDF-OH) is higher in Activity: 24.3 for the first, 25.61 for the second.

Going from `N=C(N)NCCC[C@H](N)C(=O)NCC(=O)N[C@@H](CC(=O)O)C(=O)N[C@@H](CO)C(=O)O` to `CC1(C)N(O)C(c2ccc(OCC(=O)O)cc2)=[N+]([O-])C1(C)C`, the Activity rises from 36.96 to 38.1.
